Assay [1] deals with T1, Human tissue plasminogen activator (tPA) (Two chains, Sigma) (Homo sapiens, UniProt P00750).
T1 construct: purchased Sigma
The experiment in a line: In vitro chromogenic assay for tissue plasminogen activator. Type of assay: biochemical. The note with it: substrate concentration stated equal to Km under the present assay conditions; pH 7.5, ambient temperature; read-out: Km (S2288). The procedure:
(§1) The activities were determined as an initial rate of cleavage of the peptide p-nitroanilide by the enzyme. The cleavage product, p-nitroaniline, absorbs at 405 nm with a molar extinction coefficient of 9920M^-1 cm^-1.
(§2) 50 mM Tris HCl, 150 mM NaCl, 2.5 mM CaCl2, and
3. Human tissue plasminogen activator (tPA) (Two chains, Sigma) stock solution: 1 mg/mL, stored at -80° C. (working solution (2×): 1361 ng/mL in assay buffer, prepare prior to use).
3. S2288 (tPA assay) stock solution: 10 mM in deionized H2 O, stored at 4° C. (working solution (4×): 1484 μM in assay buffer).
(§3) Assays were performed in 96-well microtiter plates in a total volume of 200 μl. […] Concentrations of the standard inhibitor compound in the assay were from 5 μM to 0.021 μM in 1 to 3 dilution. Concentration of the test compounds in the assay typically were from 10 μM to 0.041 μM in 1 to 3 dilution. For potent test compounds, the concentrations used in the factor Xa assay were further diluted 100 fold (100 nM to 0.41 nM) or 1000 fold (10 nM to 0.041 nM). […]
(§4) The enzyme kinetics were measured at 405 nm at 10 seconds intervals for five minutes in a THERMOmax plate reader at ambient temperature.
(§5) Enzyme rates were calculated as mOD/min based on the first two minutes readings. The IC50 values were determined by fitting the data to the log-logit equation (linear) or the Morrison equation (non-linear) with an EXCEL spread-sheet. […]

The next assay addresses T2, Human thrombin (Homo sapiens, UniProt P00734).
T2 construct: forms the prothrombinase complex which converts prothrombin to thrombin; purchased Enzyme Research Lab
Kind of assay: In vitro chromogenic assay for thrombin. It counts as biochemical. The note with it: substrate concentration stated equal to Km under the present assay conditions; pH 7.5, ambient temperature; read-out: Km (S2302). The procedure: as §1, §2
2. Human thrombin stock solution: Stored at -80° C. (working solution (2×): 1200 ng/mL or 40 nM in assay buffer, prepare prior to use).
2. S2302 (Thrombin assay) stock solution: 10 mM in deionized H2 O, stored at 4° C. (working solution (4×): 1200, μM in assay buffer).
as §3, §4, §5

SMILES strings stand for the structures. Where a SMILES comes first, the peptide text is derived from it. [ ]: non-standard residue; d: D form. The star is where a group is joined. pNA = O=[N+]([O-])c1ccc(N*)cc1

T1 sequence (P00750 311-562 limits assumed): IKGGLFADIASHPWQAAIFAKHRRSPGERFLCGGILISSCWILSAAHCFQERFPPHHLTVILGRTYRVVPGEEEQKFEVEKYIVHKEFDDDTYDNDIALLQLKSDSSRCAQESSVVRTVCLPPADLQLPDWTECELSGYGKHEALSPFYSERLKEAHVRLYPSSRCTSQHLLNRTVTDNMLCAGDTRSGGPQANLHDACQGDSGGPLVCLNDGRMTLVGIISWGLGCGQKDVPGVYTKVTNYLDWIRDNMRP
T1 sequence (P00750 36-310 partner limits assumed): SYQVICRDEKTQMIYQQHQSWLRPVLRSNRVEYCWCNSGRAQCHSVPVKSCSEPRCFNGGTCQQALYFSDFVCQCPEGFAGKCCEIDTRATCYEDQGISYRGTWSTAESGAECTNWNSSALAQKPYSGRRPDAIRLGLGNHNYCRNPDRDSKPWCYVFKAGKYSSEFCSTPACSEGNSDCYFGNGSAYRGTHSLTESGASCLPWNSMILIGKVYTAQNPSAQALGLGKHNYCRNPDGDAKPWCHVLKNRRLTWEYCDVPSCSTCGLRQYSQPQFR

As a reminder, the Km is the concentration of substrate that gives half-maximal velocity. For `CC[C@@H](C)[C@@H](N)C(=O)N1CCC[C@H]1C(=O)N[C@@H](CCCN=C(N)N)C(=O)Nc1ccc([N+](=O)[O-])cc1` [Example S2288] (H-[dI]-Pro-Arg-pNA), the Km in assay [1] is 371 µM. On to `N=C(N)NCCC[C@H](NC(=O)[C@H](Cc1ccccc1)NC(=O)[C@H]1CCCN1)C(=O)Nc1ccc([N+](=O)[O-])cc1` [Example S2302] (H-[dP]-Phe-Arg-pNA), for which, at Human thrombin, the Km worked out at 300 µM.

The values are drawn from patent publication US6150382A, “Thio acid derived monocyclic n-heterocyclics as anticoagulants” (Berlex Laboratories, Inc., priority 1999, dated 2000).
